Measured values reported in patent US9175077B2, “Nucleic acids encoding biologically active polypeptides derived from a novel early stage pregnancy factor designated maternin (MA)” (NOBEL BIOSCIENCES LLC, priority 1999, dated 2015).
“And” between values parts separate entries of the source, which are not always exact repeats. Identical values can stand only once.

Experiments:
KS Y-1 cells = experiment: Confocal microscopy apoptosis; format: cell-based, human; settings: 200 ng/ml; 24 hrs
[1] = test system: carcinoma of the lung HTB184; experiment: Confocal microscopy apoptosis; format: cell-based, human; settings: 200 ng/ml; 24 hrs
fibrosarcoma 4TB166 = experiment: Confocal microscopy apoptosis; format: cell-based, human; settings: 200 ng/ml; 24 hrs
gliobastoma HTB16 = experiment: Confocal microscopy apoptosis; format: cell-based, human; settings: 200 ng/ml; 24 hrs
[2] = test system: leukemia and lymphoma cell lines: HUT78, DAVDI, HG, SULTAN, T-cell lymphoma; experiment: Confocal microscopy apoptosis; format: cell-based, human; settings: 200 ng/ml; 24 hrs
melanoma HTB67 = experiment: Confocal microscopy apoptosis; format: cell-based, human; settings: 200 ng/ml; 24 hrs
[3] = test system: prostate carcinoma cell line PC3; experiment: Confocal microscopy apoptosis; format: cell-based, human; settings: 200 ng/ml; 24 hrs
[4] = test system: prostate carcinoma cell line PC4; experiment: Confocal microscopy apoptosis; format: cell-based, human; settings: 200 ng/ml; 24 hrs
[5] = test system: B16 melanoma and Lewis lung (LL) carcinoma; experiment: Metastatic B16 melanoma and Lewis lung carcinoma in C57/BL mice; format: in vivo; settings: MAS1 or MAS2 0.1 ug or 1.0 ug
Experimental: B16 melanoma and Lewis lung (LL) carcinoma cells were first shown to be susceptible to the pro-apoptotic effects of MA (FIG. 6, Panels C and D) at the same dose range used with cultured human tumor cells. The tumor cells grown in standard culture conditions were used to generate metastatic cancers in pathogen-free 6-8 week old C57/BL mice (Charles River). In one set of experiments, the animals were treated with MAS1 or MAS2 at two doses, 0.1 ug or 1.0 ug either in a pre-treatment protocol (two subcutaneous inoculations 24 and 48 hrs before transplanting the tumor cells).

SIVMAC 251 = experiment: SIV infection of rhesus macaque PBMCs (p27); format: cell-based
Experimental: One hour later the various polypeptides were added once.

[6] = test system: human primitive hematopoietic stem cells; experiment: Long term cultures (LTC-IC, stroma-free) of CD34+, CD38− cells from human BMMC; format: cell-based
Experimental: In the human system, a long-term culture-initiating assay (LTC-IC) can be used to detect cells that can generate myeloid clonogenic cells (CFC/colony forming cells) in long-term cultures for a minimum of 5 weeks. Bone marrow stromal was produced by culturing 107 fresh BM-MNC in a T25 flash for at least 2 weeks in 5 mL stromal medium; 12.5% horse [HS] and 12.5% fetal calf serum [FCS]; both from hyclone [Logan, Utah], Iscove's modified Dulbecco's medium [IMDM, GIBCO-BRL], 2-mercaptoethanol [Sigma, st. Louis, Mo.], 10^−6 mol/L hydrocortisone [Sigma] and penicillin/streptomycine.
One or 2 days before co-cultures, bone marrow stroma was irradiated with 15Gy and plated at 7×10^3/cm^2 in 24-well plates to form pre-established stromal layers for the long-term cultures. Limiting dilution was 1 to 1000 CD34+ bone marrow/cord blood cells and equivalent aliquots, i.e., limiting dilutions of the cells grown in long-term cultures stroma-free cultures after 2 to 20 weeks were seeded on top of the irradiated bone marrow stroma in culture medium containing IMDM, 12.5% HS, 12.5% FCS, 2-mercptoethanol, and 10^−6 mon-hydrocortisone for 5 weeks LTC-IC assay period. Non-adherent cells were removed from the cultures, combined with the corresponding trypsinized adherent cells, washed and assayed for colony forming units (CFU-Cs) in methylcellulose medium containing 1.3% methylcellulose (Fluka Chemilka Biochemika, buck\hs, Switzerland), 30% FCS, EPO (3 U/ml), IL-3 (20 ng/ml), G-CSF (20 ng/ml), GM-CSF (20 ng/ml) and KL (c-kit, 50 ng/ml). These cultures were incubated at 37° C. and colonies were scored 2 to 3 weeks later. LTC-IC enumeration was based on the number of CFU-C scored in the limiting assays [LDA] and another technique.
Stroma-free long-term cultures were performed as follows. 2 to 10×10^3 CD34+/CD34^−CD38^− from bone marrow/CB/PBMC cells were cultured in quadrutriplicate flat bottomed 24 well plates in 1 ml to of IMDM supplemented with 10% FCS and the following cytokines: IL-3 (10 ng/ml), IL-6 (10 ng/ml), KL [c-kit 50 ng/ml, FL (50 ng/ml) and TPO (10 U/ml), which added, alone or in combination of two or more factors, to each series of microwells twice a week. The wells were grown at 37° C. and share a number of features with in vivo murine long-term repopulating cells. These include assay for cobblestone areas colony forming cells (CAFC), high proliferative potentials colony-forming cells (HPP-CFC), CFU-GEMM, CFU-B1 (blast colony forming units).

[7] = LTC stroma free after 3 mos, n = 3

VVCNYRDVRFESIRLPGCPRGVNPVVSYAVALSCQ [MA]
induction of apoptosis (KS Y-1 cells): induced apoptosis | induction of apoptosis [1]: induced apoptosis | induction of apoptosis (fibrosarcoma 4TB166): induced apoptosis | induction of apoptosis (gliobastoma HTB16): induced apoptosis | induction of apoptosis [2]: induced apoptosis | induction of apoptosis (melanoma HTB67): induced apoptosis | induction of apoptosis [3]: induced apoptosis | induction of apoptosis [4]: induced apoptosis | pro-apoptotic effect on neoplastic cells in vivo [5]: potent pro-apoptotic effect | inhibition of SIVMAC 251 infection (qualitative) (SIVMAC 251): inhibited | BFU-e [6, 7]: 161 ± 8 | CFU-GM [6, 7]: 198 ± 11 | CFU-Mixed [6, 7]: 13 ± 3 | T-CFC [6, 7]: 199 ± 10 | CFU-GM: % of CD14 ([6]; culture 3): 27% | CFU-GM: % of CD68 ([6]; culture 3): 22% | CD34+ cells ([6]; culture 3 (LTC stroma free treated with MA)): 77.71% | T colonies Rx MA: CD3+/CD4+ ([6]; for 1, 2, and 3 (respectively)): 38% and 28% and 46% | T colonies Rx MA: CD3+/CD8+ ([6]; for 1, 2, and 3 (respectively)): 32% and 29% and 49%
